Experimental data taken from US20030134859A1 (SANKYO COMPANY, LIMITED, priority 2000, published 2003).
Where a name gives a salt, the structure may show the parent alone. Read-outs that look alike come from different tables or passages of the source.

Assays:
Balb/c mice = assay: Prevention of concanavalin A liver injury; assay type: in vivo, mouse; settings: 10 mg/mL suspension at 10 mL/kg, 30 min prior to Con A, plasma 24 hr after Con A; for inhibition in vivo at 10000 µg/mL, 100 mg/kg: Mus musculus, po, 24 h
Procedure: Five (5) Balb/c mice (female, 6-8 weeks old) per group were used. Liver injury was elicited in the mouse by injection of concanavalin A (Con A) dissolved in saline (2.0 mg/mL) into the tail vein at a volume of 10 mL/kg of the solution (Hepatology, 21, 190-198 (1995)).
The test compounds were suspended in distilled water containing 0.5% CMC, at a concentration of 10 mg/mL. This suspended solution was orally administered to the mouse at a volume of 10 mL/kg, 30 min prior to injection of Con A (group A).
Apart from this group, distilled water containing 0.5% CMC powder, instead of the test compound, was orally administered in the second group of mice (group B). In the 3rd group, nothing was given to the mice (group C).
Twenty four (24) hr after the injection of Con A, blood was collected from the abdominal aorta of the mice and the plasma was isolated while mixing with heparin. Activities of glutamic acid oxaloacetic acid transaminase (AST) and glutamic acid pyruvic acid transaminase (ALT) in the plasma were determined according to the methods described by Nagakawa et al. (J. Pharmacol. Exp. Ther., 264, 496-500 (1993)). From the values obtained inhibitory rates of the test compound against AST and ALT levels which had been increased by injection of Con A, were obtained based on the following equation.
Inhibitory Rate(%)={1−[(A−C)/(B−C)]}×100
A: The average level of AST or ALT in the group A
B: The average level of AST or ALT in the group B
C: The average level of AST or ALT in the group C

lenses = assay: Cataract assessment: opacity of cultured lenses exposed to hydrogen peroxide; parameters: species or system rat; settings: 100 nM test compound with 5 mM hydrogen peroxide; 24 hr; clear: 0, slightly opaque: 1, moderately opaque: 2
Procedure: The lenses were isolated from Sprague-Dawley rats (male, purchased from SLC Japan), and the lenses were pre-cultured in a medium (Medium-199: GIBCO BRL) for 3 hr and the lenses maintaining transparency were selected and used in the experiment. The crystalline lenses were cultured for 24 hr in the following 3 groups; 1) in Medium-199 (3 mL), 2) in Medium-199 (3 mL) containing hydrogen peroxide (final concentration: 5 mM) and 3) in Medium-199 (3 mL) containing the test compound (final concentration: 100 nM), DMSO (final concentration: 0.1% v/v) and hydrogen peroxide (final concentration: 5 mM). After finalising culturing, the opacity of the lens was scored based on the following criteria: clear: 0, slightly opaque: 1, moderately opaque: 2. Thus the improving effect of the test compound on cataracts was assessed.

ABCA1 mRNA = assay: Quantitative analysis of ABCA1 mRNA (TaqMan PCR) in RAW264.7 cells; assay type: cell-based, mouse; settings: 100 nM test compound, 24 hr, normalised to β-actin, DMSO = 100
Procedure: The mouse monocyte/macrophage cell line, RAW264.7 (ATCC TIB71) was purchased from Dainippon Pharmaceutical Co., Ltd. As the medium, the Dulbecco's modified Eagle's medium (DMEM medium; GIBCO, Cat. No. 11995-040) containing bovine fetal serum (the final concentration: 10% (v/v), MOREGATE, lot No. 474030), penicillin G (the final concentration: 50 units/mL, GIBCO) and streptomycin (the final concentration: 20 μg/mL, GIBCO) was used.
The culture of RAW264.7 cells was carried out in a CO2 incubator (37° C., 95% R.H., 5% of CO2).
A 2 ml volume of RAW264.7 cells suspension (1×10^6 cells/mL) was plated in each well of a 6-well plate (2×10^6 cells/well) and the cells were incubated for 2 hr in a CO2 incubator. The test compounds dissolved in DMSO were diluted with DMEM medium by 20 times, and were added to the wells at a volume of 4 μL/well (final concentration of the test compound: 100 nM). As the control, the DMSO solution was diluted with the DMEM medium by 20 times, and was added to the wells at the volume of 4 μL/well. After the cells were cultured in a CO2 incubator for 24 hr, the medium was removed and the total RNA was purified by using an RNeasy Mini Kit (Qiagen), according to the protocol attached. The concentration of the RNA in the samples obtained was calculated from absorbance at 260 nm (A260=1=40 μg/ml). Six (6) μg of total RNA were diluted with RNAase-free water so as to be 22.6 μL, which was heated at 65° C. for 10 min, and then was cooled on ice. The RNA in the solution was used as the template, and the cDNA was synthesized by using a First-strand cDNA Synthesis Kit (Amersham Pharmacia Biotech). In this reaction, a solution was prepared having the following composition and was reacted at 37° C. for 1 hr.
After the reaction, 3 μL of soution were collected from each of the reaction mixtures of the test compound-treated cell samples and that of the control cell samples. The mixed solution was used as the standard solution. The standard solution and each reaction solution were purified with a Chroma Spin-100+DEPC-H2O Column according to the protocol attached, and they were used as the template for TaqMan PCR (Template). In order to draw the calibration curve, the standard solution was diluted by every 5 times for 5 steps and each solution was used for TaqMan PCR. TaqMan PCR was carried out in ABCA1 and β-actin. As Primers for use in the TaqMan PCR, 4 oligonucleotides (abca1 forward (S3), abca1 reverse (AS3), β-actin forward (S4) and β-actin reverse (AS4)) were designed which are shown in sequences No. 5 to 8 in the sequence table described later. The synthesis and purification of these 4 oligomers was ordered from Amersham Pharmacia Biotech Co.
As FAM-TAMRA labelled TaqMan Probe, 2 kinds of oligonucleotides (abca1 (p1) and β-actin (p2)) were designed and were ordered from Applied Biosystems Co. to synthesize and purify.
The following reaction mixture of ABCA1 or β-actin was divided into 2 wells of a MicroAmp Optical 96-well Reaction Plate (Applied Biosystem Co.). TaqMan Universal PCR Master Mix was purchased from Applied Biosystem Co.
The plate was covered with a MicroAmp Optical Cap (Applied Biosystems Co.), and TaqMan PCR was carried out by using an ABI PRISM 7,700 Sequence Detection System (Applied Biosystem Co.) under the following conditions:
An analysis was made according to the procedures described in the manual of Sequence Detection Software (Applied Biosystem Co.) and the increased rate of ABCA1 mRNA due to the test compound was calculated based on the following equation.
A: Amount of the ABCA1 mRNA in the presence of the test compound
B: Amount of the β-actin mRNA in the presence of the test compound
C: Amount of the ABCA1 mRNA in the presence of DMSO
D: Amount of the β-actin mRNA in the presence of DMSO
Increase Rate (%) of ABCA1 mRNA=(A/B)/(C/D)×100

[1] = read-out: Preventing rate against liver injury, ALT (%)
[2] = read-out: Preventing rate against liver injury, AST (%)

**Q.** Which results are given for `CCCc1ccc(NC(=O)c2cc([N+](=O)[O-])ccc2Cl)cc1` [Example 15, N-(4-Propylphenyl)-(2-chloro-5-nitrophenyl)carboxamide]?
**A.** inhibition in vivo at 10000 µg/mL, 100 mg/kg (Balb/c mice; [1]): 39%; inhibition in vivo at 10000 µg/mL, 100 mg/kg (Balb/c mice; [2]): 54%

**Q.** For `O=C(Nc1ccc(OC(F)(F)F)cc1)c1cc([N+](=O)[O-])ccc1Cl` [Example 18, N-(4-Trifluoromethyloxyphenyl)-(2-chloro-5-nitrophenyl)carboxamide], which inhibition in vivo at 10000 µg/mL, 100 mg/kg (Balb/c mice; [1]) is on record?
**A.** 39.8%

**Q.** What about the inhibition in vivo at 10000 µg/mL, 100 mg/kg (Balb/c mice; [2]) of the same molecule?
**A.** 24.1%

**Q.** `O=C(Nc1ccncc1)c1cc([N+](=O)[O-])ccc1Cl` [Example 49, N-(4-Pyridyl)-(2-chloro-5-nitrophenyl)carboxamide] was tested. Which inhibition in vivo at 10000 µg/mL, 100 mg/kg (Balb/c mice; [1]) did it give?
**A.** 59%

**Q.** What about the inhibition in vivo at 10000 µg/mL, 100 mg/kg (Balb/c mice; [2]) of the same molecule?
**A.** 61%

**Q.** With `O=C(Nc1nccc2ccccc12)c1cc([N+](=O)[O-])ccc1Cl` [Example 59, N-(Isoquinolin-1-yl)-(2-chloro-5-nitrophenyl)carboxamide] as the molecule, how does the inhibition in vivo at 10000 µg/mL, 100 mg/kg (Balb/c mice; [1]) read?
**A.** 18.7%

**Q.** What about the inhibition in vivo at 10000 µg/mL, 100 mg/kg (Balb/c mice; [2]) of the same molecule?
**A.** 20.5%

**Q.** Which inhibition in vivo at 10000 µg/mL, 100 mg/kg (Balb/c mice; [1]) does the source give for `Nc1ccc(-c2ccc(NC(=O)c3cc([N+](=O)[O-])ccc3Cl)cc2)cc1` [Example 88, N-[4-(4-Aminophenyl)phenyl]-(2-chloro-5-nitrophenyl)carboxamide mono-hydrochloride] here?
**A.** 42.3%

**Q.** What about the inhibition in vivo at 10000 µg/mL, 100 mg/kg (Balb/c mice; [2]) of the same molecule?
**A.** 57%

**Q.** Which “opacity of the lens (average score)” value (lenses) does the source give for `Cc1c(C)c2c(c(C)c1O)C(=O)CC(C)(COc1ccc(NC(=O)c3cc([N+](=O)[O-])ccc3Cl)cc1)O2` (stereo not shown) [Example 92, N-[4-(6-Hydroxy-2,5,7,8-tetramethyl-4-oxochroman-2-ylmethoxy)phenyl]-(2-chloro-5-nitrophenyl)carboxamide] here?
**A.** 1.0

**Q.** What does the source list for `O=C(Nc1ccc(N2CCCCC2)cc1)c1cc([N+](=O)[O-])ccc1Cl` [Example 114, N-[4-(Piperidin-1-yl)phenyl]-(2-chloro-5-nitrophenyl)carboxamide]?
**A.** inhibition in vivo at 10000 µg/mL, 100 mg/kg (Balb/c mice; [1]): 32.8%; inhibition in vivo at 10000 µg/mL, 100 mg/kg (Balb/c mice; [2]): 50.5%

**Q.** `CC(=O)Nc1ccc(-c2ccc(NC(=O)c3cc([N+](=O)[O-])ccc3Cl)cc2)cc1` [Example 118, N-[4-(4-Acetylaminophenyl)phenyl]-(2-chloro-5-nitrophenyl)carboxamide] was tested. Which inhibition in vivo at 10000 µg/mL, 100 mg/kg (Balb/c mice; [1]) did it give?
**A.** 55.8%

**Q.** What about the inhibition in vivo at 10000 µg/mL, 100 mg/kg (Balb/c mice; [2]) of the same molecule?
**A.** 45%

**Q.** With `CC(=O)c1cccc(NC(=O)c2cc([N+](=O)[O-])ccc2Cl)c1` [Example 156, N-(3-Acetylphenyl)-(2-chloro-5-nitrophenyl)carboxamide] as the molecule, how does the inhibition in vivo at 10000 µg/mL, 100 mg/kg (Balb/c mice; [1]) read?
**A.** 85.5%

**Q.** What about the inhibition in vivo at 10000 µg/mL, 100 mg/kg (Balb/c mice; [2]) of the same molecule?
**A.** 82.6%

**Q.** What does the source list for `O=C(Nc1ccc(C(=O)N2CCCCC2)cc1)c1cc([N+](=O)[O-])ccc1Cl` [Example 159, N-[4-(Piperidylcarbonyl)phenyl]-(2-chloro-5-nitrophenyl)carboxamide]?
**A.** inhibition in vivo at 10000 µg/mL, 100 mg/kg (Balb/c mice; [1]): 78.7%; inhibition in vivo at 10000 µg/mL, 100 mg/kg (Balb/c mice; [2]): 91.2%

**Q.** What does the source list for `CC(C)(C)c1cc(NS(=O)(=O)c2cccc(NC(=O)c3cc([N+](=O)[O-])ccc3Cl)c2)cc(C(C)(C)C)c1O` [Example 161, N-[3-[(3,5-di-tert-Butyl-4-hydroxyphenyl)aminosulfonyl]phenyl]-(2-chloro-5-nitrophenyl)carboxamide]?
**A.** inhibition in vivo at 10000 µg/mL, 100 mg/kg (Balb/c mice; [1]): 82.8%; inhibition in vivo at 10000 µg/mL, 100 mg/kg (Balb/c mice; [2]): 69.3%

**Q.** `CCN(CC)c1ccc(-c2ccc(NC(=O)c3cc([N+](=O)[O-])ccc3Cl)cc2)cc1` [Example 217, N-[4-[4-(N,N-Diethylamino)phenyl]phenyl]-(2-chloro-5-nitrophenyl)carboxamide] was tested. Which “Rate of Increase (%) of ABCA1 mRNA” value (ABCA1 mRNA) did it give?
**A.** 187.0%

**Q.** `CCN(C)c1ccc(-c2ccc(NC(=O)c3cc([N+](=O)[O-])ccc3Cl)cc2)cc1` [Example 218, N-[4-[4-(N-Ethyl-N-methylamino)phenyl]phenyl]-(2-chloro-5-nitrophenyl)carboxamide] was tested. Which “Rate of Increase (%) of ABCA1 mRNA” value (ABCA1 mRNA) did it give?
**A.** 190.0%

**Q.** How did the “Preventing rate against liver injury, ALT (%)” value (Balb/c mice; oral) turn out when “N-[4-[4-(Pyrrolidin-1-ylamino)phenyl]phenyl]-(2-chloro-5-nitrophenyl)carboxamide [Example 171]” was run?
**A.** 90.0%

**Q.** What about the “Preventing rate against liver injury, AST (%)” value (Balb/c mice; oral) of the same molecule?
**A.** 102.8%
